According to ChEMBL document CHEMBL1156029, “The discovery of thienopyridine analogues as potent IkappaB kinase beta inhibitors. Part II” (Bioorg Med Chem Lett, 2009):
Calls of active or inactive are those of the source. The rule behind the calls is not given here.

How the values were obtained:
[1] = target: Tyrosine-protein kinase Lyn (Homo sapiens, UniProt P07948); assay: Inhibition of Lyn
[2] = target: MAP kinase-activated protein kinase 2 (Homo sapiens) (UniProt P49137); assay: Inhibition of MAPKAP-K2 at 10 uM
Sequence of MAP kinase-activated protein kinase 2 (Homo sapiens) (P49137 whole entry, looked up): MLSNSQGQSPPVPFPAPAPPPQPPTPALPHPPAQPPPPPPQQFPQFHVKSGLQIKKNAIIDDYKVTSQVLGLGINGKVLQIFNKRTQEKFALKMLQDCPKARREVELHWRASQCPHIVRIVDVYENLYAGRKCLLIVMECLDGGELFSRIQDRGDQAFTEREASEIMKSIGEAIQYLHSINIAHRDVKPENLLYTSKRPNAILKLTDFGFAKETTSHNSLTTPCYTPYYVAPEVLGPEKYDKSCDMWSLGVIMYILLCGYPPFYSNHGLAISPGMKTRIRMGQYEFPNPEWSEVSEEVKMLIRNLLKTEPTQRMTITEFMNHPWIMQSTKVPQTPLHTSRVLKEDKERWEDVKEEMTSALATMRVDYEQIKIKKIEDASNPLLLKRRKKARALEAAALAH

[3] = tested on: Mus musculus; assay: Inhibition of LPS-induced TNFalpha production in mouse at 10 mg/kg, po administered 60 mins before LPS challenge; format: functional
[4] = target: T1, Ephrin type-A receptor 3 (Homo sapiens, UniProt P29320); assay: Inhibition of Hek
T1 sequence (P29320 whole entry): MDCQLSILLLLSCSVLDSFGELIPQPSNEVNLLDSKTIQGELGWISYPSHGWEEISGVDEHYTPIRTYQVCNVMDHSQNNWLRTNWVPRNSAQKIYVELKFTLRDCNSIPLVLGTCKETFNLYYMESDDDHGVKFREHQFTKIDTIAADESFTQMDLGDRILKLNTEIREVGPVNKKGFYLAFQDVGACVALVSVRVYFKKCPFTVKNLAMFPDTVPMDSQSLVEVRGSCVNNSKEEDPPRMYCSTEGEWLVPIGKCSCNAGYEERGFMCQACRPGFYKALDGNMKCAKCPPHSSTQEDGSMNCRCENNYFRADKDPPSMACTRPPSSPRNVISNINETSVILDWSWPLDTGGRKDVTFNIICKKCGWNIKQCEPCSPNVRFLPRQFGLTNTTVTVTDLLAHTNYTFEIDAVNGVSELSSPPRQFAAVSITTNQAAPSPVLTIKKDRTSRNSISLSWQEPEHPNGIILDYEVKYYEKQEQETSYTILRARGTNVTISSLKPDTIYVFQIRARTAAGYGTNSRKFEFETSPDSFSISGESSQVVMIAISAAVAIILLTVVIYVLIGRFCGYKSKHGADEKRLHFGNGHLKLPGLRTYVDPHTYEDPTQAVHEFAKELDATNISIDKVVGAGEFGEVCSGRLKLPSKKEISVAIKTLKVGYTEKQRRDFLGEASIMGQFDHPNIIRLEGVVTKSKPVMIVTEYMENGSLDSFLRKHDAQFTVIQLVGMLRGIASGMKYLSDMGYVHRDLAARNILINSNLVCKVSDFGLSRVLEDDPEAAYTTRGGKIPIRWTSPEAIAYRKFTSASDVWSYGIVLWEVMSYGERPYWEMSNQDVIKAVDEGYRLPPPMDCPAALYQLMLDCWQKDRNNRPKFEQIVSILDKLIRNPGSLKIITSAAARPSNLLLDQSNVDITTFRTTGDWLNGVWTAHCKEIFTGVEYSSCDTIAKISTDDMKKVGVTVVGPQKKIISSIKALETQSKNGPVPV

[5] = target: T2, Serine/threonine-protein kinase Chk1 (Homo sapiens) (UniProt O14757); assay: Inhibition of CHK1 at 10 uM
T2 sequence (whole entry): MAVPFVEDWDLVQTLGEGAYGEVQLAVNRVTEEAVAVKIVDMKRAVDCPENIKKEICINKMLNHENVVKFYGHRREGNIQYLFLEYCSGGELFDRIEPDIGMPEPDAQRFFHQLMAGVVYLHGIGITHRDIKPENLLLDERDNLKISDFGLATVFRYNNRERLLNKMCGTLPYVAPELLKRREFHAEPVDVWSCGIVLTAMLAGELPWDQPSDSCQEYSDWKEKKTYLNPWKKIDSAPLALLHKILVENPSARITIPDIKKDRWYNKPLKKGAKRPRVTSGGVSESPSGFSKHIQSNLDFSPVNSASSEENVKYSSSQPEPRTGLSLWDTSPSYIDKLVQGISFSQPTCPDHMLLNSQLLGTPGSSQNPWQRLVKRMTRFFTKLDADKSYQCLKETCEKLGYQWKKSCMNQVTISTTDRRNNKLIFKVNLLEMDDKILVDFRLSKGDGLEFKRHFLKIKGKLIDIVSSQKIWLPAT

[6] = target: Ribosomal protein S6 kinase alpha-5 (Homo sapiens) (UniProt O75582); assay: Inhibition of MSK1 at 10 uM
Sequence of Ribosomal protein S6 kinase alpha-5 (Homo sapiens) (O75582 whole entry, looked up): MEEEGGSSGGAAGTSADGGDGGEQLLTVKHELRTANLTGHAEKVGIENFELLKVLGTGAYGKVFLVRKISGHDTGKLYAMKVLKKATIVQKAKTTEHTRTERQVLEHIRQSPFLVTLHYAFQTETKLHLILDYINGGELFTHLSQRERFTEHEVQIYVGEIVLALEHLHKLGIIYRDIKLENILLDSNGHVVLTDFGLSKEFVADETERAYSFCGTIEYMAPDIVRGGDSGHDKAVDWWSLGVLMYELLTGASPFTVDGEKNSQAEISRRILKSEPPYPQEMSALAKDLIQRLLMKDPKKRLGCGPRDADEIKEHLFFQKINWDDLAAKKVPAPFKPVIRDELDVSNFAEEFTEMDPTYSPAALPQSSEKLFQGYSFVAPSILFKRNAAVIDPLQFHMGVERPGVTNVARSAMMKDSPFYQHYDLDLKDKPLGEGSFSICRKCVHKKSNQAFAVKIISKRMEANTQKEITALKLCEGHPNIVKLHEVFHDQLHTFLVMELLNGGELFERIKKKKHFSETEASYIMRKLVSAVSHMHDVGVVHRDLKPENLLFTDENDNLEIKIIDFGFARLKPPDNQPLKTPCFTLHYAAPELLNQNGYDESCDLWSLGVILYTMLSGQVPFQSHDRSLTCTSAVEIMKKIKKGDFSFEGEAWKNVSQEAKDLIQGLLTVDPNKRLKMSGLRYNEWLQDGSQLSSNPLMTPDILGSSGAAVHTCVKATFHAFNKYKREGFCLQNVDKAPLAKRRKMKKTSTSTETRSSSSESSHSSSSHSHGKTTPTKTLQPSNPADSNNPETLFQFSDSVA

[7] = target: Epidermal growth factor receptor (Homo sapiens, UniProt P00533)
Sequence of Epidermal growth factor receptor (P00533 whole entry): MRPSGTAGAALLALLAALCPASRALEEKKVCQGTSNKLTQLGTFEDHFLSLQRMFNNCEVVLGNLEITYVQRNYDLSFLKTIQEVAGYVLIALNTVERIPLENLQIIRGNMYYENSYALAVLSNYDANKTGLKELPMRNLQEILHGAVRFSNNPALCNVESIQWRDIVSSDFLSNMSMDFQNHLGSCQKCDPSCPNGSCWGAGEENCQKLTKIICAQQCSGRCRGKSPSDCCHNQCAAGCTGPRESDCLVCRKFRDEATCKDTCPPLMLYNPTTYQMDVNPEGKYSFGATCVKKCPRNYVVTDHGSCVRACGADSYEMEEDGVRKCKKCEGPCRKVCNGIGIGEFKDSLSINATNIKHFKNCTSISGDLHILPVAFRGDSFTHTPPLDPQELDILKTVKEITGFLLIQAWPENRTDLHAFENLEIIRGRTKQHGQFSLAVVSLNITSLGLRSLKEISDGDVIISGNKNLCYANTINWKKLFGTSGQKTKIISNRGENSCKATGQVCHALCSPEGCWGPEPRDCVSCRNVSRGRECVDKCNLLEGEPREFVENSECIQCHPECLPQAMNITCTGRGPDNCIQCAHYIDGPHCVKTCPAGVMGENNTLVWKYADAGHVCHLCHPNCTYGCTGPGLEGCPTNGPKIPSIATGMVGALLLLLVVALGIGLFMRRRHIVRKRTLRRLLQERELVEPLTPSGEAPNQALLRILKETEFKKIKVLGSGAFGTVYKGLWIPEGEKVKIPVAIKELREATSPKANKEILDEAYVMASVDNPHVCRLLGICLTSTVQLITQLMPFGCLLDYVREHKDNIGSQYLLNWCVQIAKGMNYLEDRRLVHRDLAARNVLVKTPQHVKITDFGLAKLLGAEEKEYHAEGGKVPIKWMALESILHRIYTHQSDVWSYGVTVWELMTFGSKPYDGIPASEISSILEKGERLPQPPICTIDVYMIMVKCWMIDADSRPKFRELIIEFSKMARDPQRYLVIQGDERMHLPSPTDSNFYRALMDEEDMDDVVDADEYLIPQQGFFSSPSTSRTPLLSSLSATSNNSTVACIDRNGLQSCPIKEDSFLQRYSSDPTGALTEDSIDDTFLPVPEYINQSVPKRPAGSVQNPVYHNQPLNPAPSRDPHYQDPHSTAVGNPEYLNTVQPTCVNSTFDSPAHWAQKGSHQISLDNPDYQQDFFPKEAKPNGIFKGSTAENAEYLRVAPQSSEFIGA

Sequence of Tyrosine-protein kinase Lyn (P07948 whole entry): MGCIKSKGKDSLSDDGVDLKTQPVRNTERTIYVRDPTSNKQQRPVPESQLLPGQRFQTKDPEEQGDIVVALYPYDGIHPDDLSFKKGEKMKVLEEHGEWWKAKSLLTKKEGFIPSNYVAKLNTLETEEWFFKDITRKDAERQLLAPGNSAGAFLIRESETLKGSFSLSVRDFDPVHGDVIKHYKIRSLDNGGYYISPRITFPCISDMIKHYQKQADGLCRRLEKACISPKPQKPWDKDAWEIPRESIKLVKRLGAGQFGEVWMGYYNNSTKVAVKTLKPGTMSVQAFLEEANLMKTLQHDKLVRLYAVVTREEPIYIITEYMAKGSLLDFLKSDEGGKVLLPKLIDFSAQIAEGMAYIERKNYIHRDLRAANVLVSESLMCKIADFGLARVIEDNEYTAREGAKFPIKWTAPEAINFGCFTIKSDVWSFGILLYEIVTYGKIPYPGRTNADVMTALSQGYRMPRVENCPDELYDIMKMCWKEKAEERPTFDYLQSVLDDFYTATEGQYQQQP

IC50 [1] [µM]	Activity [2]	IC50 [4] [µM]	Activity [5]	Activity [6]	IC50 [7] [µM]	SMILES	inhibition in vivo at 10 mg/kg [3] [%]
> 7	inactive	8	inactive	inactive	–	CCCc1cc(N2CCNCC2)nc2sc(C(N)=O)c(N)c12	12
> 7	inactive	9	inactive	inactive	–	CCCc1cc(N2CCC(O)CC2)nc2sc(C(N)=O)c(N)c12	42
> 7	inactive	> 7	inactive	inactive	> 7	CCCc1cc(N2CCCC(O)C2)nc2sc(C(N)=O)c(N)c12 (stereo not given)	14
> 7	inactive	7	inactive	inactive	–	CCCc1cc(N2CCC(N)CC2)nc2sc(C(N)=O)c(N)c12	17
